{
  "source": "paper PMC8416020",
  "about": "(eLife, 2021)",
  "key": {"GHSR F272^6.44 mutants": {"tested_on": "GHSR F272^6.44 mutants", "conditions": "ref Valentin-Hansen et al., 2012, cited from earlier work", "from_the_text": "(§1) The fluorescent probe was introduced at different positions along GHSR sequence. […] The absence of major effect on substituting F272^6.44 with 7H4MC-ethylglycine on GHSR functioning was puzzling, as mutating this residue to an ala ..."}, "[1]": {"tested_on": "GHSR F272^6.44 to alanine mutant", "conditions": "mutating F272^6.44 to alanine; ref Valentin-Hansen et al., 2012; cited from earlier work", "from_the_text": "as §1"}, "[2]": {"tested_on": "GHSR labeled with 7H4MC-ethylglycine at I134^3.43", "test": "Hydration parameter H from 7H4MC fluorescence emission", "assay_type": "biochemical, human", "conditions": "ligand 10 µM, POPC:POPG nanodiscs, 15°C, ex 320 nm", "from_the_text": "(§2) We then investigated whether the fluorescence properties of 7H4MC-ethylglycine could report on the local hydration features of GHSR. To this end, we analyzed the 7H4MC emission profile for each of the positions considered. An excitation wavelength of 320 nm was systematically used to excite the neutral form of the fluorophore ([Amaro et al., 2015]). The emission spectra were deconvoluted into their separate components using the procedure initially described ([Amaro et al., 2015]). A hydration parameter H was then determined that corresponded to the sum of the contributions of the anionic and tautomer forms. This parameter is an indicator of the extent of hydration at the position considered, as the higher the H parameter the higher local hydration ([Amaro et al., 2015]). A difference in the H parameter inferred for the 7H4MC probe at the different positions of the apo GHSR was observed depending on the position considered (Figure 2—figure supplement 1, 2).\n(§3) Figure 2. Local hydration of growth hormone secretagogue receptor (GHSR) as a function of ligands. […] All ligands were used at a 10 µM concentration. In all cases, the data represents the mean value ± SD of three experiments. Statistical analyses are provided in […]—figure supplement 2 and 4. Figure 2—source data 1. H parameter for GHSR and its mutants. Figure 2—figure supplement 1. Emission spectra of L-(7-hydroxycoumarin-4-yl) (7H4MC)-ethylglycine incorporated into isolated growth hormone secretagogue receptor (GHSR). The spectra were recorded in the absence of ligand. The labeling positions are given in a snake-like plot of GHSR ([Shiimura et al., 2020]) (A) (red: positions deleterious to GHSR function; green: positions considered in this work), and then indicated in each panel (B–F). The excitation wavelength was set to 320 nm with an emission intensity recorded between 340 and 600 nm. The gray curve represents the experimental emission spectrum (exp). The red, blue, green, and magenta spectra represent the decomposition of the experimental spectrum into its neutral (N), complexed (C), anionic (A), and tautomeric (T) components, respectively. The orange curve (fit) corresponds to sum of the individual N, C, A, and T curves. Figure 2—figure supplement 1—source data 1. 7-H4MC emission intensity of the apo GHSR mutants. [drawing 7] Figure 2—figure supplement 2. Statistical analysis of the data in Figure 2. […] Data is from Figure 2. […] Structure of the ligands used throughout this work. [drawing 9] Figure 2—figure supplement 4. Statistical analysis of the data in Figure 2. The left panels show the hydration parameter for each of the mutants in the absence or in the presence of ligands. Data are from Figure 2. The right panels show the mean difference between the apo and the ligand-loaded states for each of the mutants with multiplicity-adjusted 95% confidence intervals. [drawing 10] Figure 2—figure supplement 5. Emission spectra of L-(7-hydroxycoumarin-4-yl) (7H4MC)-ethylglycine incorporated at position 5.58 of growth hormone secretagogue receptor (GHSR) in the presence of pharmacologically distinct ligands or phosphatidylinositol-4,5-bisphosphate (PIP2). […] The excitation wavelength was set to 320 nm with an emission intensity recorded between 340 and 600 nm. The black curve represents the experimental emission spectrum (exp). The red one (fit) corresponds to sum of the individual curves after decomposition of the experimental spectrum into its neutral, complexed, anionic, and tautomeric components. Figure 2—figure supplement 5—source data 1. 7-H4MC emission intensity of the GHSR 5.58 mutant in the presence of ligands. [drawing 11] Figure 2—figure supplement 6. […]"}, "[3]": {"tested_on": "GHSR labeled with 7H4MC-ethylglycine at V268^6.40", "test": "Hydration parameter H from 7H4MC fluorescence emission", "assay_type": "biochemical, human", "conditions": "for H parameter: 6.4, ligand 10 µM, POPC:POPG nanodiscs, 15°C, ex 320 nm", "from_the_text": "as §2, §3"}, "[4]": {"tested_on": "GHSR labeled with 7H4MC-ethylglycine at F272^6.44", "test": "Hydration parameter H from 7H4MC fluorescence emission", "assay_type": "biochemical, human", "conditions": "for H parameter: 6.44", "from_the_text": "as §2, §3"}, "[5]": {"tested_on": "GHSR labeled with 7H4MC-ethylglycine at Y232^5.58", "test": "Hydration parameter H from 7H4MC fluorescence emission", "assay_type": "biochemical, human", "conditions": "for H parameter: 5.58", "from_the_text": "as §2, §3"}, "[6]": {"tested_on": "GHSR labeled with 7H4MC-ethylglycine at S315^7.45", "test": "Hydration parameter H from 7H4MC fluorescence emission", "assay_type": "biochemical, human", "conditions": "ligand 10 µM, POPC:POPG nanodiscs, 15°C, ex 320 nm", "from_the_text": "as §2, §3"}, "[7]": {"tested_on": "GHSR labeled with 7H4MC-ethylglycine at W215^5.41", "test": "Ligand binding and activation of W215^5.41-labeled receptor", "assay_type": "biochemical, human", "conditions": "basal activity markedly decreased"}, "7H4MC-labeled GHSR": {"tested_on": "7H4MC-labeled GHSR", "test": "Hydration parameter H from 7H4MC fluorescence emission, several positions together", "assay_type": "biochemical, human", "conditions": "positions besides 5.58 and 6.44; saturating ligand (10 µM); vs apo", "from_the_text": "as §2\nFigure 2. Local hydration of growth hormone secretagogue receptor (GHSR) as a function of ligands. […] All ligands were used at a 10 µM concentration. […] The spectra were recorded in the absence of ligand. […] The excitation wavelength was set to 320 nm with an emission intensity recorded between 340 and 600 nm. […] The excitation wavelength was set to 320 nm with an emission intensity recorded between 340 and 600 nm. […]"}, "isolated GHSR": {"tested_on": "isolated GHSR", "conditions": "ghrelin versus SPA; ref Mary et al., 2012; cited from earlier work", "from_the_text": "We then used 7H4MC fluorescence to monitor the impact of ligand binding on the hydration pattern of GHSR."}, "GHSR": {"tested_on": "GHSR", "conditions": "ref M'Kadmi et al., 2015; cited from earlier work"}, "[8]": {"conditions": "saturating ligand (10 µM), vs apo"}, "[9]": {"conditions": "ligand 10 µM, POPC:POPG nanodiscs, 15°C, ex 320 nm, replicate 1"}, "[10]": {"conditions": "ligand 10 µM, POPC:POPG nanodiscs, 15°C, ex 320 nm, replicate 2"}, "[11]": {"conditions": "ligand 10 µM, POPC:POPG nanodiscs, 15°C, ex 320 nm, replicate 3"}, "[12]": {"conditions": "Figure 5, 10 µM ghrelin, 2.5% PIP2-to-total lipids molar ratio, replicate 1"}, "[13]": {"conditions": "Figure 5, 10 µM ghrelin, 2.5% PIP2-to-total lipids molar ratio, replicate 2"}, "[14]": {"conditions": "Figure 5, 10 µM ghrelin, 2.5% PIP2-to-total lipids molar ratio, replicate 3"}, "[15]": {"conditions": "Figure 5, 10 µM ghrelin, no PIP2, replicate 1"}, "[16]": {"conditions": "Figure 5, 10 µM ghrelin, no PIP2, replicate 2"}, "[17]": {"conditions": "Figure 5, 10 µM ghrelin, no PIP2, replicate 3"}},
  "note": "Where no end group is shown, it is not given here.",
  "data": [
    {"substance": "ghrelin: natural full agonist of GHSR, natural peptide agonist (GSSFLSPEHQRVQQRKESKKPPAKLQPR; not fully specified; ends and bridges not checked; UniProt Q9UBU3 24-51, looked up)", "values": [
      {"measurement": "ghrelin-induced signaling, F272^6.44 to alanine", "setting": "GHSR F272^6.44 mutants; mutating F272^6.44 to alanine", "result": "reduce ghrelin-induced signaling"},
      {"measurement": "basal- and ghrelin-induced GHSR activity, F272^6.44 to tyrosine", "setting": "GHSR F272^6.44 mutants; replacing phenylalanine with tyrosine, compared with alanine", "result": "far lower impact on both basal- and ghrelin-induced GHSR activity"},
      {"measurement": "ghrelin binding affinity, F272^6.44 to alanine", "setting": "[1]", "result": "without affecting ghrelin binding affinity"},
      {"measurement": "H parameter", "setting": "[2]; replicate 1", "result": 68.24},
      {"measurement": "H parameter", "setting": "[2]; replicate 2", "result": 63.92},
      {"measurement": "H parameter", "setting": "[2]; replicate 3", "result": 67.2},
      {"measurement": "H parameter", "setting": "[3]; replicate 1", "result": 61.86},
      {"measurement": "H parameter", "setting": "[3]; replicate 2", "result": 65.16},
      {"measurement": "H parameter", "setting": "[3]; replicate 3", "result": 62.17},
      {"measurement": "change in the hydration parameter at V268^6.40", "setting": "[3]; [8]", "result": "no change was observed for V268^6.40"},
      {"measurement": "H parameter", "setting": "[4]; [9]", "result": 21.07},
      {"measurement": "H parameter", "setting": "[4]; [10]", "result": 20.32},
      {"measurement": "H parameter", "setting": "[4]; [11]", "result": 19.11},
      {"measurement": "H parameter", "setting": "[4]; [12]", "result": 15.658},
      {"measurement": "H parameter", "setting": "[4]; [13]", "result": 15.178},
      {"measurement": "H parameter", "setting": "[4]; [14]", "result": 13.342},
      {"measurement": "H parameter", "setting": "[4]; [15]", "result": 18.095},
      {"measurement": "H parameter", "setting": "[4]; [16]", "result": 20.174},
      {"measurement": "H parameter", "setting": "[4]; [17]", "result": 21.958},
      {"measurement": "change in the hydration parameter at position 6.44 upon binding", "setting": "[4]; [8]", "result": "local hydration at position 6.44 decreased"},
      {"measurement": "H parameter", "setting": "[5]; [9]", "result": 48.83},
      {"measurement": "H parameter", "setting": "[5]; [10]", "result": 49.38},
      {"measurement": "H parameter", "setting": "[5]; [11]", "result": 47.22},
      {"measurement": "H parameter", "setting": "[5]; [12]", "result": 60.136},
      {"measurement": "H parameter", "setting": "[5]; [13]", "result": 58.145},
      {"measurement": "H parameter", "setting": "[5]; [14]", "result": 61.325},
      {"measurement": "H parameter", "setting": "[5]; [15]", "result": 49.568},
      {"measurement": "H parameter", "setting": "[5]; [16]", "result": 47.078},
      {"measurement": "H parameter", "setting": "[5]; [17]", "result": 48.124},
      {"measurement": "change in the hydration parameter at position 5.58 upon binding", "setting": "[5]; [8]", "result": "increase in the hydration parameter at position 5.58"},
      {"measurement": "H parameter", "setting": "[6]; replicate 1", "result": 24.96},
      {"measurement": "H parameter", "setting": "[6]; replicate 2", "result": 23.88},
      {"measurement": "H parameter", "setting": "[6]; replicate 3", "result": 21.19},
      {"measurement": "ligand binding and activation of W215^5.41 mutant", "setting": "[7]", "result": "could still bind its ligands and be activated by ghrelin"},
      {"measurement": "change in the hydration parameter at other positions", "setting": "7H4MC-labeled GHSR", "result": "no relevant change in the hydration parameter"},
      {"measurement": "effect of ghrelin and SPA on GHSR activation and conformational landscape", "setting": "isolated GHSR", "result": "opposite effect of ghrelin and SPA on GHSR activation and conformational landscape"},
      {"measurement": "pharmacological class", "setting": "GHSR", "result": "natural full agonist"}
    ]}
  ]
}
